This passage reports IC50 results from US8455497B2, “Inhibitors of aspartyl protease” (Vertex Pharmaceuticals Incorporated, priority 1999, dated 2013).

Structures are written as SMILES. Like-named read-outs stand apart in the source and are kept apart here.

One experiment has as its system HIV-1 (strain IIIB). The experiment can be described thus: Antiviral activity assay in MT4 cells (propidium iodide based). The note with it: Human immunodeficiency virus 1, IIIB; wild type HIV-1 virus, MT4 cells; read-out: Wildtype virus - IC50. The experiment is classed as cell-based. Summed up:
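MT4 cells infected with HIV-1 IIIB (MOI 100×TCID50, 1 hr, 37°C), diluted 6-fold into wells with serially diluted compound, incubated 5 days. Cells lysed with Nonidet-40; DNA content per well estimated by propidium iodide staining as the viability read-out, with mock-infected controls.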

For experiment [1], the system named is D545701-14 multi protease inhibitor resistant virus. As to the kind of experiment: Anti-viral activity against resistant virus D545701-14 in MT4 cells. The experiment is classed as cell-based, HIV-1. Here is the method: (§1) Exponentially growing MT4 cells were harvested and centrifuged at 1000 rpm for 10 min in a Jouan centrifuge (model CR 4 12). […] Cell aliquots were infected by the addition of HIV-1 (strain IIIB) diluted to give a viral multiplicity of infection of 100×TCID50. […] Cell infection was allowed to proceed for 1 hr at 37° in a tissue culture incubator with humidified 5% CO2 atmosphere. After the 1 hr incubation the virus/cell suspensions were diluted 6-fold with fresh medium, and 125 μl of the cell suspension was added to each well of the plate containing pre-diluted compound. Plates were then placed in a tissue culture incubator with humidified 5% CO2 for 5 days. At the end of the incubation period, 27 μl of 5% Nonidet-40 was added to each well of the incubation plate. After thorough mixing with a Costar multitip pipetter, 60 μl of the mixture was transferred to filter-bottomed 96-well plates. The plates were analyzed in an automated assay instrument (Screen Machine, Idexx Laboratories). The assay makes use of a propidium iodide dye to estimate the DNA content of each well.
(§2) Anti-Viral Activity Against Resistant Viruses
EP13 and DS45701, two multi protease inhibitor resistant viruses were used to assess potency against mutant viruses. These viruses contain the following mutations relative to the consensus sequence of wild type virus: […]

Experiment [2] relates to EP13 multi protease inhibitor resistant virus. The experiment can be described thus: Anti-viral activity against resistant virus EP13 in MT4 cells. The experiment is classed as cell-based, HIV-1. The procedure: as §1, §2
EP13 and DS45701, two multi protease inhibitor resistant viruses were used to assess potency against mutant viruses. These viruses contain the following mutations relative to the consensus sequence of wild type virus:
EP13: Protease amino acid sequence: M46I, L63P, A71V, V82F/L, I84V; No reverse transcriptase mutations.

Setting [3] is: Human immunodeficiency virus 1, MT4, read-out: D545701-14 mutant - IC50, D545701-14 multi protease inhibitor resistant virus, MT4 cells.
Setting [4] is: Human immunodeficiency virus 1, MT4, read-out: EP13 mutant IC50, EP13 multi protease inhibitor resistant virus, MT4 cells.
Where [5] appears, read: Human immunodeficiency virus 1, MT4, read-out: D545701-14 mutant - IC50.
Where [6] appears, read: Human immunodeficiency virus 1, MT4, read-out: EP13 mutant IC50.

As for `CC(C)CN(C[C@@H](O)[C@H](Cc1ccc(OCc2cccc(C#N)c2)cc1)NC(=O)O[C@H]1CO[C@H]2OCC[C@H]21)S(=O)(=O)c1ccc2c(c1)OCCO2` [Compound 338, (3R,3aS,6aR)-hexahydrofuro[2,3-b]furan-3-yl (1S,2R)-1-{4-[(3-cyanobenzyl)oxy]benzyl}-3-[(2,3-dihydro-1,4-benzodioxin-6-ylsulfonyl)(isobutyl)amino]-2-hydroxypropylcarbamate], the concentration for half-maximal inhibition (IC50) (with HIV-1 (strain IIIB); in experiment [1] (setting [3]); in experiment [2] (setting [4])) was 1 to 10 nM in each case.

In the case of `CC(C)CN(C[C@@H](O)[C@H](Cc1ccc(OC(=O)N(C)C)cc1)NC(=O)O[C@H]1CO[C@H]2OCC[C@H]21)S(=O)(=O)c1ccc2c(c1)OCO2` [Compound 311, (3R,3aS,6aR)-Hexahydrofuro[2,3-b]furan-3-yl (1S,2R)-3[(1,3-benzodioxol-5-ylsulfonyl)(isobutyl)amino]-1-(4-{[(dimethylamino)carbonyl]oxy}benzyl)-2-hydroxypropylcarbamate], the IC50 with HIV-1 (strain IIIB) is 1 to 10 nM; in experiment [1] (setting [5]), 10 to 100 nM; in experiment [2] (setting [6]), 1 to 10 nM.

Regarding `CC(C)CN(C[C@@H](O)[C@H](Cc1ccc(OCC(F)(F)F)cc1)NC(=O)O[C@H]1CO[C@H]2OCC[C@H]21)S(=O)(=O)c1ccc2c(c1)OCO2` [Compound 304, (3R,3aS,6aR)-hexahydrofuro[2,3-b]furan-3-yl (1S,2R)-3-[(1,3-benzodioxol-5-ylsulfonyl)(isobutyl)amino]-2-hydroxy-1-[4-(2,2,2-trifluoroethoxy)benzyl]propylcarbamate], the half-maximal inhibitory concentration (IC50) (in the experiment with HIV-1 (strain IIIB); in experiment [1] (setting [3]); in experiment [2] (setting [4])) was 1 to 10 nM each time.

For `CNC(=O)Oc1ccc(C[C@H](NC(=O)O[C@H]2CO[C@H]3OCC[C@H]32)[C@H](O)CN(CC(C)C)S(=O)(=O)c2ccc3c(c2)OCO3)cc1` [Compound 309, (3R,3aS,6aR)-Hexahydrofuro[2,3-b]furan-3-yl (1S,2R)-3-[(1,3-benzodioxol-5-ylsulfonyl)(isobutyl)amino]-2-hydroxy-1-(4-{[(methylamino)carbonyl]oxy}benzyl)propylcarbamate], the concentration for half-maximal inhibition (IC50) (in the experiment on HIV-1 (strain IIIB); in experiment [1] (setting [5]); in experiment [2] (setting [6])) was 1 to 10 nM in each case.

As to `CNC(=O)OCCOc1ccc(C[C@H](NC(=O)O[C@H]2CO[C@H]3OCC[C@H]32)[C@H](O)CN(CC(C)C)S(=O)(=O)c2ccc3c(c2)OCO3)cc1` [Compound 323, (3R,3aS,6aR)-Hexahydrofuro[2,3-b]furan-3-yl (1S,2R)-3-[(1,3-benzodioxol-5-ylsulfonyl)(isobutyl)amino]-2-hydroxy-1-[4-(2-{[(methylamino)carbonyl]oxy}ethoxy)benzyl]propylcarbamate], the concentration for half-maximal inhibition (IC50) (with HIV-1 (strain IIIB); in experiment [1] (setting [3]); in experiment [2] (setting [4])) was 1 to 10 nM each time.

With `CC(C)CN(C[C@@H](O)[C@H](Cc1ccc(OCc2ccccn2)cc1)NC(=O)O[C@H]1CO[C@H]2OCCC21)S(=O)(=O)c1cccc(N)c1` (stereo partly drawn) [Compound 293], the IC50 (in the experiment with HIV-1 (strain IIIB); in experiment [1] (setting [3]); in experiment [2] (setting [4])) was 1 to 10 nM each time.

As to `CC(C)CN(C[C@@H](O)[C@H](Cc1ccc(OS(=O)(=O)c2ccc3c(c2)OCO3)cc1)NC(=O)O[C@H]1CO[C@H]2OCC[C@H]21)S(=O)(=O)c1ccc2c(c1)OCO2` [Compound 349, 4-{(2S,3R)-2-({[(3R,3aS,6aR)-hexahydrofuro[2,3-b]furan-3-yloxy]carbonyl}amino)-4-[(1,3-benzodioxol-5-ylsulfonyl)(isobutyl)amino]-3-hydroxybutyl}phenyl 1,3-benzodioxole-5-sulfonate], the IC50 (with HIV-1 (strain IIIB); in experiment [1] (setting [3]); in experiment [2] (setting [4])) was 1 to 10 nM in each case.

Usually IC50 stands for the concentration needed to halve the response being measured.
